The values that follow come from paper PMC7911220, “Monoterpenoids from the Fruits of Amomum tsao-ko Have Inhibitory Effects on Nitric Oxide Production” (Plants, 2021).

The structures appear in SMILES notation. Like-named read-outs stand apart in the source and are kept apart here.

The test system of data set [1] is LPS-induced NO production in RAW 264.7 cells. In words: LPS-induced NO production, Griess reaction assay. The data set is classed as cell-based, mouse. Particulars: read-out: IC50, inhibition of LPS-induced NO production. How it is done:
(§1) To obtain plant-derived inhibitors of NO as potential lead compounds for treating inflammation disorders, monoterpene constituents 1–6 isolated from the fruits of A. tsao-ko were assayed to determine their inhibitory activities on LPS-induced NO production in murine macrophage RAW 264.7 cells via the Griess reaction assay, as described previously.
(§2) Mouse RAW264.7 macrophage cells (TIB-71) were maintained in Dulbecco’s modified Eagle medium (DMEM) supplemented with 10% fetal bovine serum (FBS), 100 U/mL penicillin, and 0.1 mg/mL streptomycin in a humidified incubator with 5% CO2 at 37 °C.
(§3) The Griess reaction was performed to measure the concentration of nitrite in the medium as an indicator of NO production. RAW264.7 macrophage cells were cultured in a 96-well plate after seeding at a density of 4 × 10^5 cells/well for 24 h in DMEM supplemented with 10% FBS, and stimulated with or without LPS (1 μg/mL, Sigma Aldrich, St. Louis, MO, USA) in the presence or absence of the compounds. After 24 h of incubation at 37 °C, 5% CO2, the cell supernatant was reacted with equal volumes of Griess reagent solutions to determine nitrite production. Absorbance was measured with a microplate reader (Molecular Devices, Sanjose, CA, USA) at 540 nm. Cell viability was confirmed via MTT (Duchefa Biochemie, Haarlem, The Netherlands) assay. The supernatant was removed and medium containing MTT solution (5 mg/mL in phosphate-buffered saline) was added to each well and incubated for 2 h. The medium was removed, and 100 μL of dimethyl sulfoxide (Duchefa Biochemie, Haarlem, The Netherlands) was added to each well to dissolve the purple formazan product to obtain a colored solution. Absorbance was measured at 540 nm with a microplate reader.
A general note: Nitrite, measured by Griess reagent, commonly stands in for NO production.

The test system of data set [2] is RAW264.7 macrophage cells. In words: MTT assay for cell viability. Particulars: RAW 264.7 cells, LPS-stimulated. How it is done:
as §1, §2, §3

Data set [3] has as its system iNOS protein expression. In words: Western blot analysis of iNOS protein expression in LPS-stimulated RAW264.7 cells. The data set is classed as cell-based, mouse. Particulars: pretreatment 10, 50, 100 μM for 1 h, then LPS 1 μg/mL 24 h. The text has this:
L-Arginine-derived NO is an intracellular signaling molecule formed in mammalian cells by different three isoforms of nitric oxide synthase (NOS). The isozymes are referred to as neuronal NOS (nNOS or NOS I), inducible NOS (iNOS or NOS II), and an endothelial NOS (eNOS or NOS III). Excessive generation of NO by iNOS is seen in inflammatory diseases such as autoimmune and chronic inflammatory disorders. To examine the mechanism of NO inhibition by active compound 4, we evaluated iNOS protein expression via western blotting.
Figure 2 Effects of (1R,4S,6S)-1,6-dihydroxy-2-menthene (compound 4) on iNOS protein and pro-inflammatory cytokine mRNA expression in LPS-stimulated RAW264.7 cells. […] (C,D) Levels of iNOS, IL-1β, and IL-6 mRNAs were determined via RT-PCR. RT-PCR data results were expressed as the fold of changes of the target gene (iNOS, IL-1β, and IL-6) and normalized to the GAPDH. […]
RAW264.7 cells, plated in 6-well plates (1 × 10^6 cells/well), were treated with compound 4 (10, 50, and 100 μM). […] Protein expression was analyzed via immunoblotting with antibodies against anti-iNOS (cat. no. ab3523; dilution, 1:500, Abcam, Cambridge, UK) and β-actin (cat. no. 5125; dilution, 1:1000, Cell Signaling Technology, Danvers, MA, USA). […] The bands of interest were quantified using the imageJ software.
(In general: In western blotting, separated proteins are transferred to a membrane and probed.)

In data set [4] the test system is iNOS mRNA. In words: RT-PCR of iNOS mRNA in LPS-stimulated RAW264.7 cells. The data set is classed as cell-based, mouse. Particulars: 10, 50, 100 μM for 1 h, then LPS 1 μg/mL 24 h, normalized to GAPDH. How it is done:
(§4) Figure 2 Effects of (1R,4S,6S)-1,6-dihydroxy-2-menthene (compound 4) on iNOS protein and pro-inflammatory cytokine mRNA expression in LPS-stimulated RAW264.7 cells. RAW264.7 cells were pretreated with different concentrations (10, 50, 100 μM) of compound 4 for 1 h, and then stimulated with 1 µg/mL LPS for 24 h. (A,B) Western blot analysis of iNOS expression in cells treated with compound 4 (10, 50, 100 μM). β-Actin was used as a loading control. (C,D) Levels of iNOS, IL-1β, and IL-6 mRNAs were determined via RT-PCR. RT-PCR data results were expressed as the fold of changes of the target gene (iNOS, IL-1β, and IL-6) and normalized to the GAPDH. Values represent the mean ± SD of three independent experiments. […]
(§5) Next, we confirmed the effect of compound 4 on the expression of inflammatory factors, i.e., iNOS, IL-1β, and IL-6 in LPS-stimulated RAW264.7 cells. […] We measured the levels of the relevant mRNAs via reverse transcription polymerase chain reaction (RT-PCR). […]
(§6) RAW264.7 cells, plated in 6-well plates (1 × 10^6 cells/well), were treated with compound 4 (10, 50, and 100 μM) for 1 h prior to LPS, and stimulated with 1 μg/mL LPS or remained unstimulated for 24 h. […] The bands of interest were quantified using the ChemiDoc XRS system and Quantity One software (Bio-Rad Laboratories, Hercules, CA, USA).

The subject of data set [5] is IL-1β mRNA. In words: RT-PCR of IL-1β mRNA in LPS-stimulated RAW264.7 cells. The data set is classed as cell-based, mouse. The settings on record: 10, 50, 100 μM for 1 h, then LPS 1 μg/mL 24 h, normalized to GAPDH. How it is done:
as §4, §5, §6

In data set [6] the test system is IL-6 mRNA. In words: RT-PCR of IL-6 mRNA in LPS-stimulated RAW264.7 cells. The data set is classed as cell-based, mouse. The settings on record: 10, 50, 100 μM for 1 h, then LPS 1 μg/mL 24 h, normalized to GAPDH. The procedure:
as §4, §5, §6

The mark [7] stands for this setting: Mus musculus, RAW264.7, RAW 264.7 cells, LPS 1 μg/mL, 24 h, Griess reagent.

As for `CC(C)[C@H]1C=C[C@@](C)(O)[C@@H](O)C1` [Compound 4, (1R,4S,6S)-1,6-dihydroxy-2-menthene], in data set [1] (setting [7]), the IC50 amounted to 82.5 µM. The “MTT (cell viability)” value in data set [2] is more than 100 µM. The iNOS protein expression entry in data set [3] was “significantly and dose-dependently inhibited iNOS expression”. For the same compound, the “iNOS mRNA expression” value in data set [4] is “decreased the iNOS expression at the mRNA level, in a dose-dependent manner”. Moreover, in data set [5], the “IL-1β mRNA level” value is “reduced”. Moreover, in data set [6], the “IL-6 mRNA level” value is recorded as “reduced”.
For the compound `CC(=CCO)CCCC(C)CO` (stereo not drawn) [Compound 5, 3,7-dimethyl-2-octene-1,8-diol], the IC50 in data set [1] (setting [7]) was more than 100 µM. Further, in data set [2], the “MTT (cell viability)” value is more than 100 µM.
In the same order, the values of `C=C(C)[C@H]1CC[C@@](C)(O)C[C@@H]1O` [Compound 3, (1R,3S,4R)-3-hydroxy isopulegol] are more than 100 µM and more than 100 µM.
In the case of `C/C(C=O)=C\CC/C(C)=C/CO` [Compound 6, 8-oxogeraniol], the IC50 in data set [1] (setting [7]) is more than 100 µM. In data set [2], the “MTT (cell viability)” value was more than 100 µM.
In the same order, the values of `CC1=C[C@@H](O)[C@H](C(C)C)C[C@H]1O` [Compound 2, (3S,4S,6R)-3,6-dihydroxy-1-menthene] are more than 100 µM and more than 100 µM.
With `O=CC1=CC[C@@H](O)[C@H]2CCC[C@@H]12` [Compound 1, tsaokoin], the IC50 in data set [1] (Mus musculus, RAW264.7, 24 h) is more than 100 µM. The “MTT (cell viability)” value in data set [2] was more than 100 µM.
On to `CC(=O)O.CNC(=N)NCCC[C@H](N)C(=O)O` [NG-methyl-L-arginine acetate, reference compound], for which the IC50 in data set [1] (RAW 264.7 cells, LPS 1 μg/mL, 24 h, Griess reagent) was 34.2 µM. For the same compound, the “MTT (cell viability)” value in data set [2] is more than 100 µM.

A word on the IC50: it is the concentration that inhibits the measured activity by half.
